In the supplement of paper PMC10307832:

Columns and labels:
Assay in all cases: relative viability (nuclei count vs DMSO), 5 days (fraction); higher = more cells survive
Vorinostat + Foretinib = compound: O=C(CCCCCCC(=O)Nc1ccccc1)NO [Vorinostat] + COc1cc2c(Oc3ccc(NC(=O)C4(C(=O)Nc5ccc(F)cc5)CC4)cc3F)ccnc2cc1OCCCN1CCOCC1 [Foretinib] (partner 0.25 µM)
Procedure, shortened: (§1)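 One day after seeding in 1536-well plates, lung cancer cell lines were dosed by pin tool. Dosing was either single-drug or a fixed anchor-drug dose plus five library-drug doses (not always all listed) in √10 steps. After 5 days, nuclei were stained in one fix-and-stain step and counted on 4× images, and relative viability is the nuclei count of treated wells over that of vehicle wells, given as the median of duplicate plates.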

Vorinostat + Linsitinib = compound: O=C(CCCCCCC(=O)Nc1ccccc1)NO [Vorinostat] + C[C@]1(O)C[C@@H](c2nc(-c3ccc4ccc(-c5ccccc5)nc4c3)c3c(N)nccn32)C1 [Linsitinib] (partner 1 µM)
Procedure, shortened: as §1

Vorinostat + Pictilisib = compound: O=C(CCCCCCC(=O)Nc1ccccc1)NO [Vorinostat] + CS(=O)(=O)N1CCN(Cc2cc3nc(-c4cccc5[nH]ncc45)nc(N4CCOCC4)c3s2)CC1 [Pictilisib] (partner 1 µM)
Procedure, shortened: as §1

Vorinostat + Tozasertib = compound: O=C(CCCCCCC(=O)Nc1ccccc1)NO [Vorinostat] + Cc1cc(Nc2cc(N3CCN(C)CC3)nc(Sc3ccc(NC(=O)C4CC4)cc3)n2)n[nH]1 [Tozasertib] (partner 0.1 µM)
Procedure, shortened: as §1

Vorinostat + AZD7762 = compound: O=C(CCCCCCC(=O)Nc1ccccc1)NO [Vorinostat] + NC(=O)Nc1cc(-c2cccc(F)c2)sc1C(=O)N[C@H]1CCCNC1 [AZD7762] (partner 0.2 µM)
Procedure, shortened: as §1

Row | Cell Line | relative viability (Vorinostat + Foretinib; first compound 0.253 µM) | relative viability (Vorinostat + Foretinib; first compound 0.8 µM) | relative viability (Vorinostat + Foretinib; first compound 2.53 µM) | relative viability (Vorinostat + Foretinib; first compound 8 µM) | relative viability (Vorinostat + Linsitinib; first compound 0.253 µM) | relative viability (Vorinostat + Linsitinib; first compound 0.8 µM) | relative viability (Vorinostat + Linsitinib; first compound 2.53 µM) | relative viability (Vorinostat + Linsitinib; first compound 8 µM) | relative viability (Vorinostat + Pictilisib; first compound 0.253 µM) | relative viability (Vorinostat + Pictilisib; first compound 0.8 µM) | relative viability (Vorinostat + Pictilisib; first compound 2.53 µM) | relative viability (Vorinostat + Pictilisib; first compound 8 µM) | relative viability (Vorinostat + Tozasertib; first compound 0.253 µM) | relative viability (Vorinostat + Tozasertib; first compound 0.8 µM) | relative viability (Vorinostat + Tozasertib; first compound 2.53 µM) | relative viability (Vorinostat + Tozasertib; first compound 8 µM) | relative viability (Vorinostat + AZD7762; first compound 0.253 µM) | relative viability (Vorinostat + AZD7762; first compound 0.8 µM) | relative viability (Vorinostat + AZD7762; first compound 2.53 µM) | relative viability (Vorinostat + AZD7762; first compound 8 µM)
1 | PC-3 [JPC-3] | 1.02 | 1.03 | 0.316 | 0.239 | 0.886 | 0.938 | 0.625 | 0.281 | 0.779 | 0.582 | 0.423 | 0.309 | 0.821 | 0.741 | 0.229 | 0.266 | 0.834 | 0.526 | 0.306 | 0.271
2 | NCI-H647 | 1.08 | 1.04 | 0.507 | 0.0683 | 1.24 | 0.959 | 0.294 | 0.0525 | 0.454 | 0.526 | 0.153 | 0.0703 | 0.279 | 0.183 | 0.078 | 0.0319 | 0.406 | 0.333 | 0.0641 | 0.0356
3 | NCI-H322M | 1.1 | 0.925 | 0.428 | 0.309 | 1.04 | 1.01 | 0.51 | 0.275 | 0.537 | 0.541 | 0.386 | 0.317 | 0.51 | 0.496 | 0.381 | 0.298 | 0.56 | 0.565 | 0.408 | 0.304
4 | NCI-H1355 | 1.05 | 1.01 | 0.562 | 0.156 | 0.917 | 0.707 | 0.451 | 0.139 | 0.556 | 0.329 | 0.244 | 0.165 | 0.529 | 0.315 | 0.188 | 0.129 | 0.892 | 0.595 | 0.394 | 0.15
